Drawing on ChEMBL document CHEMBL5055668 (J Med Chem, 2021), this text covers inhibition in vivo, IC50 and inhibition for 11 molecules.

Calls of active or inactive are those of the source. The rule behind the calls is not given here. Some results are limits rather than exact numbers.

In the first assay the test system is MC-38. As to the kind of experiment: Antitumor activity against mouse MC38 cells allografted in C57BL6 mouse assessed as tumor growth inhibition at 20 mg/kg, po administered daily for 2 weeks by caliper method. The conditions noted are these: MC-38, po, 336 h, read-out: TGI.
For `FC(F)(F)c1ccc(CNc2ccc(Cc3c[nH]c4ncc(Cl)cc34)cn2)cn1` [PEXIDARTINIB], the inhibition in vivo at 20 mg/kg worked out at 40.3%.

For a further assay, the target named is Macrophage colony-stimulating factor 1 receptor (Homo sapiens, UniProt P07333).
Macrophage colony-stimulating factor 1 receptor, sequence (P07333 whole entry): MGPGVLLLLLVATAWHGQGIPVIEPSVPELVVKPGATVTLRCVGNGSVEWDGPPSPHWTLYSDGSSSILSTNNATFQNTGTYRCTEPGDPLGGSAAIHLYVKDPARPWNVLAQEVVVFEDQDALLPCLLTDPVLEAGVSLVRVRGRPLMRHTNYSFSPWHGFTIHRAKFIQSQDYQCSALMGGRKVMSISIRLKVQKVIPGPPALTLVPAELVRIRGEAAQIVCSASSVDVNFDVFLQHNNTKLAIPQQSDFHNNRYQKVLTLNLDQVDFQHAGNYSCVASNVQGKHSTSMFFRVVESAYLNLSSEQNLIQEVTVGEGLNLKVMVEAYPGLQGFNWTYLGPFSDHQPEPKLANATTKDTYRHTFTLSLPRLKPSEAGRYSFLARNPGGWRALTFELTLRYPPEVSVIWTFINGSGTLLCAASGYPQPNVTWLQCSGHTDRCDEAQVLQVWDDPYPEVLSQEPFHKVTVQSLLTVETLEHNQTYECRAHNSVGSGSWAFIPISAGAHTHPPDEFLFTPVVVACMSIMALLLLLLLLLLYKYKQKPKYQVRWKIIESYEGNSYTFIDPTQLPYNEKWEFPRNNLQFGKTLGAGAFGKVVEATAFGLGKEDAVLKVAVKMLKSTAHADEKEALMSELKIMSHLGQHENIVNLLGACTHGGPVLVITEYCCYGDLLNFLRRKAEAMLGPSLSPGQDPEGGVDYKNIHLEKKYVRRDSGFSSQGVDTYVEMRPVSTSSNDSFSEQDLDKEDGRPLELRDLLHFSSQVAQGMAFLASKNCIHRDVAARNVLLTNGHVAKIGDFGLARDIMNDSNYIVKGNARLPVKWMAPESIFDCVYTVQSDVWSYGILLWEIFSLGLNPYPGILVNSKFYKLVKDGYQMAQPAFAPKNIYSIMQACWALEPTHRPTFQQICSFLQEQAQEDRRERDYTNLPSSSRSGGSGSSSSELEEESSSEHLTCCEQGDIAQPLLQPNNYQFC
Conditions: not given
`CCN(CC)CCNC(=O)c1c(C)[nH]c(/C=C2\C(=O)Nc3cc(NC(=O)NC4CCN(C)CC4)ccc32)c1C` registered a half-inhibitory concentration (IC50) of more than 3 µM.

In another assay the target is T1, Macrophage colony-stimulating factor 1 receptor (Mus musculus) (UniProt P09581).
T1 sequence (whole entry): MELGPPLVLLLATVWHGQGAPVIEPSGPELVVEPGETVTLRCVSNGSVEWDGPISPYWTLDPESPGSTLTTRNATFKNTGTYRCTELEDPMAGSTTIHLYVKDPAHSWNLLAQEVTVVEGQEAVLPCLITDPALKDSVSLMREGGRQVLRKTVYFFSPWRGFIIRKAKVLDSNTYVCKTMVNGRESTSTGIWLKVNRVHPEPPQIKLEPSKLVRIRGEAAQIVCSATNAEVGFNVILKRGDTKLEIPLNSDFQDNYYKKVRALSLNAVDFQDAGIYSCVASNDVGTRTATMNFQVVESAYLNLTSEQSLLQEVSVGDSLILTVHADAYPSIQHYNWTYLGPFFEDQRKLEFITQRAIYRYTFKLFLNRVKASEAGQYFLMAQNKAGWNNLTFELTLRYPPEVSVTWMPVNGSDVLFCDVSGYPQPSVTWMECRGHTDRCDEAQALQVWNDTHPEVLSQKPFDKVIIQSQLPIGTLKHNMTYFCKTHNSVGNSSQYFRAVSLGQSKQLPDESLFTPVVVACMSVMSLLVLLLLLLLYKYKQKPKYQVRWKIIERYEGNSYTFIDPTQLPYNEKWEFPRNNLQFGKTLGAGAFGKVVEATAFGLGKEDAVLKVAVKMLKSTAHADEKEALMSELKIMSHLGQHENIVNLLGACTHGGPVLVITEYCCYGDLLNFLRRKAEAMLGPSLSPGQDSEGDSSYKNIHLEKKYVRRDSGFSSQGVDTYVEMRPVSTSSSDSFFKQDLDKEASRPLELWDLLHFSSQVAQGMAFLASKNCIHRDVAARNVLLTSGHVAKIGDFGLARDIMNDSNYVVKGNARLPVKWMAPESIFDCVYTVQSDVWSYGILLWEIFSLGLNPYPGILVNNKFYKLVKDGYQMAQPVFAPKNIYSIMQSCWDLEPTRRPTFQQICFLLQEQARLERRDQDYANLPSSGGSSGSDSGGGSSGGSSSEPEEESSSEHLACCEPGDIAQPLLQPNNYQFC
In words: Inhibition of CSF-1R signaling pathway in C57BL/6 mouse BMDM cells assessed as reduction in M-CSF induced CSF-1R phosphorylation at 100 nM preincubated for 12 hrs followed by M-CSF stimulation for 30 mins by Western blot analysis.
Conditions: not given
Format: cell-based.
As for `Cc1[nH]c(/C=C2\C(=O)Nc3cc(NC(=O)Nc4cc(C(C)(C)C)on4)ccc32)c(C)c1NC(=O)CCN(C)C`, the inhibition result is “Active”.

On to `Cc1[nH]c(/C=C2\C(=O)Nc3cc(NC(=O)Nc4cc(C(C)(C)C)on4)ccc32)c(C)c1NC(=O)CCN1CCCCC1`, for which the inhibition result was “Active”.

For `Cc1[nH]c(/C=C2\C(=O)Nc3cc(NC(=O)Nc4cc(C(C)(C)C)on4)ccc32)c(C)c1NC(=O)CCN1CCN(C)CC1`, the inhibition result is “Active”.

With `CCNCCC(=O)Nc1c(C)[nH]c(/C=C2\C(=O)Nc3cc(NC(=O)Nc4cc(C(C)(C)C)on4)ccc32)c1C`, the inhibition entry is “Active”.

Regarding `CCCNCCC(=O)Nc1c(C)[nH]c(/C=C2\C(=O)Nc3cc(NC(=O)Nc4cc(C(C)(C)C)on4)ccc32)c1C`, the inhibition entry was “Active”.

`Cc1[nH]c(/C=C2\C(=O)Nc3cc(NC(=O)Nc4cc(C(C)(C)C)on4)ccc32)c(C)c1NC(=O)C1CCCCN1` (configuration not stated): the inhibition entry was “Active”.

Consider `Cc1[nH]c(/C=C2\C(=O)Nc3cc(NC(=O)Nc4cc(C(C)(C)C)on4)ccc32)c(C)c1NC(=O)CCN1CCCC1`, for which the inhibition entry is “Active”.

With `Cc1[nH]c(/C=C2\C(=O)Nc3cc(NC(=O)Nc4cc(C(C)(C)C)on4)ccc32)c(C)c1NC(=O)C1CCCNC1` (configuration not stated), the inhibition result is “Active”.

With `FC(F)(F)c1ccc(CNc2ccc(Cc3c[nH]c4ncc(Cl)cc34)cn2)cn1` [PEXIDARTINIB], the inhibition result is “Active”.

On to `Cc1[nH]c(/C=C2\C(=O)Nc3cc(NC(=O)Nc4cc(C(C)(C)C)on4)ccc32)c(C)c1NC(=O)[C@@H]1CCNC1`, for which the inhibition entry is “Active”.
